Assay results as given in US20130053381A1, “2,4-DIOXO-1,4-DIHYDRO-2H-QUINAZOLIN-3-YL-SULFONAMIDE DERIVATIVES” (NOVARTIS AG, priority 2010, published 2013).
Read-outs that look alike come from different tables or passages of the source.

Tested on: OF1 mice
Assay: Maximal electroshock test (MES Test)
Format: in vivo
Conditions: Mus musculus, read-out: %-Protection; for responders at 15 mg/kg: p.o. (footnote c); for responders at 50 mg/kg: p.o.; for responders at 25 mg/kg: p.o. (footnote b)
Procedure, shortened: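 Compound given p.o. (typically 50 mg/kg) 1 h before tonic-clonic convulsions were induced via temporal electrodes (50 Hz, 18 mA, 0.2 s); seizure lasting 3 s or less counted as protection. Read-out is percent protected of five mice per condition; ED50 calculated, blood exposure sampled after shock.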

[1] = po, 50 mg/kg, pre-treatment time −1 h
[2] = po, 50 mg/kg, pre-treatment time −2 h (footnote a)
[3] = dose of up to 50 mg/kg, 1 hour prior to induction of convulsions

| Structure (SMILES) | responders at 50 mg/kg [1] [%] | other results |
| --- | --- | --- |
| CC(=O)OC(C)(C)C(=O)N(n1c(=O)[nH]c2cc(C(C)C)c(-c3ccnn3C)cc2c1=O)S(C)(=O)=O [Example 3.10, Acetic acid 2-{[7-isopropyl-6-(2-methyl-2H-pyrazol-3-yl)-2,4-dioxo-1,4-dihydro-2H-quinazolin-3-yl]-methanesulfonyl-amino}-1,1-dimethyl-2-oxo-ethyl ester] | – | responders at 15 mg/kg (po, pre-treatment time −1 h): 40% |
| CCCCCC(=O)N(n1c(=O)[nH]c2cc(C(F)(F)F)c(-c3ccnn3C(C)C)cc2c1=O)S(C)(=O)=O [Example 5.04, N-Hexanoyl-N-[6-(2-isopropyl-2H-pyrazol-3-yl)-2,4-dioxo-7-trifluoromethyl-1,4-dihydro-2H-quinazolin-3-yl]-methanesulfonamide] | 20 | – |
| CCCCC(=O)N(n1c(=O)[nH]c2cc(C(F)(F)F)c(C(O)CC)cc2c1=O)S(C)(=O)=O (centres unmarked) [Example 12.05, N-[6-(1-Hydroxy-propyl)-2,4-dioxo-7-trifluoromethyl-1,4-dihydro-2H-quinazolin-3-yl]-N-pentanoyl-methanesulfonamide] | 40 | – |
| CCCC(=O)N(n1c(=O)[nH]c2cc(C(F)(F)F)c(-n3cnnc3)cc2c1=O)S(C)(=O)=O [Example 9.04, N-Butyryl-N-(2,4-dioxo-6-[1,2,4]triazol-4-yl-7-trifluoromethyl-1,4-dihydro-2H-quinazolin-3-yl)-methanesulfonamide] | – | responders at 50 mg/kg [2]: 20% |
| CCCCCOC(=O)N(n1c(=O)[nH]c2cc(CC)c(-c3ccnn3C)cc2c1=O)S(C)(=O)=O [Example 2.13, Methanesulfonyl-[7-ethyl-6-(2-methyl-2H-pyrazol-3-yl)-2,4-dioxo-1,4-dihydro-2H-quinazolin-3-yl]-carbamic acid pentyl ester] | 20 | – |
| CC(C)COC(=O)N(n1c(=O)c2cc(-c3ccnn3C)c(C(C)C)cc2n(C(=O)OCC(C)C)c1=O)S(C)(=O)=O [Example 3.04, 3-(Isobutoxycarbonyl-methanesulfonyl-amino)-7-isopropyl-6-(2-methyl-2H-pyrazol-3-yl)-2,4-dioxo-3,4-dihydro-2H-quinazoline-1-carboxylic acid isobutyl ester] | – | responders at 15 mg/kg (po, pre-treatment time −1 h): 20% |
| CCOC(=O)CCC(=O)N(n1c(=O)[nH]c2cc(C(C)C)c(-c3ccnn3C)cc2c1=O)S(C)(=O)=O [Example 3.06, 4-{[7-Isopropyl-6-(2-methyl-2H-pyrazol-3-yl)-2,4-dioxo-1,4-dihydro-2H-quinazolin-3-yl]-methanesulfonyl-amino}-4-oxo-butyric acid ethyl ester] | – | responders at 15 mg/kg (po, pre-treatment time −1 h): 100% |
| CCCCOC(=O)N(n1c(=O)c2cc(-c3ccnn3C)c(C(C)C)cc2n(C(=O)OCCCC)c1=O)S(C)(=O)=O [Example 3.35, 3-(Butoxycarbonyl-methanesulfonyl-amino)-7-isopropyl-6-(2-methyl-2H-pyrazol-3-yl)-2,4-dioxo-3,4-dihydro-2H-quinazoline-1-carboxylic acid butyl ester] | 80 | – |
| CCCC(=O)N(n1c(=O)[nH]c2cc(C(F)(F)F)c(-n3cccc3)cc2c1=O)S(C)(=O)=O [Example 8.02, N-Butyryl-N-(2,4-dioxo-6-pyrrol-1-yl-7-trifluoromethyl-1,4-dihydro-2H-quinazolin-3-yl)-methanesulfonamide] | 20 | – |
| CCCC(=O)N(n1c(=O)[nH]c2cc(C(F)F)c(-c3ccnn3C(C)C)cc2c1=O)S(C)(=O)=O [Example 6.02, N-Butyryl-N-[7-difluoromethyl-6-(2-isopropyl-2H-pyrazol-3-yl)-2,4-dioxo-1,4-dihydro-2H-quinazolin-3-yl]-methanesulfonamide] | 40 | responders at 25 mg/kg (po, pre-treatment time −1 h): 0% |
| CCC(OC)c1cc2c(=O)n(N(C(=O)OCC(C)C)S(C)(=O)=O)c(=O)[nH]c2cc1C(F)(F)F (centres unmarked) [Example 11.10, Methanesulfonyl-[6-(1-methoxy-propyl)-2,4-dioxo-7-trifluoromethyl-1,4-dihydro-2H-quinazolin-3-yl]-carbamic acid isobutyl ester] | 100 | – |
| COCCOC(=O)N(n1c(=O)[nH]c2cc(C(F)(F)F)c([C@H]3CCCO3)cc2c1=O)S(C)(=O)=O [Example 10.07, Methanesulfonyl-N—((R)-2,4-dioxo-6-tetrahydro-furan-2-yl-7-trifluoromethyl-1,4-dihydro-2H-quinazolin-3-yl)-carbamic acid 2-methoxy-ethyl ester] | 60 | – |
| CCCCC(=O)N(n1c(=O)[nH]c2cc(C(F)(F)F)c(C(CC)OC)cc2c1=O)S(C)(=O)=O (centres unmarked) [Example 11.15, N-[6-(1-methoxy-propyl)-2,4-dioxo-7-trifluoromethyl-1,4-dihydro-2H-quinazolin-3-yl]-N-pentanoyl-methanesulfonamide] | 100 | – |
| CCOC(=O)N(n1c(=O)c2cc(-c3ccnn3C)c(C(C)C)cc2n(C(=O)OCC)c1=O)S(C)(=O)=O [Example 3.33] | 80 | – |
| CCc1cc2[nH]c(=O)n(N(C(C)=O)S(C)(=O)=O)c(=O)c2cc1-c1ccnn1C [Example 2.01, N-Acetyl-N-[7-ethyl-6-(2-methyl-2H-pyrazol-3-yl)-2,4-dioxo-1,4-dihydro-2H-quinazolin-3-yl]-methanesulfonamide] | 100 | – |
| CCn1nccc1-c1cc2c(=O)n(N(C(=O)C(C)(C)C)S(C)(=O)=O)c(=O)[nH]c2cc1C(F)F [N-[7-Difluoromethyl-6-(2-ethyl-2H-pyrazol-3-yl)-2,4-dioxo-1,4-dihydro-2H-quinazolin-3-yl]-N-(2,2-dimethyl-propionyl)-methanesulfonamide] | – | responders at 50 mg/kg [3]: 0% |
| CCOC(=O)N(n1c(=O)[nH]c2cc(C(F)F)c(-c3ccnn3C(C)C)cc2c1=O)S(C)(=O)=O [Example 6.06, [7-Difluoromethyl-6-(2-isopropyl-2H-pyrazol-3-yl)-2,4-dioxo-1,4-dihydro-2H-quinazolin-3-yl]-methanesulfonyl-carbamic acid ethyl ester] | 60 | responders at 25 mg/kg (po, pre-treatment time −1 h): 20% |
| CC(C)COC(=O)N(n1c(=O)[nH]c2cc(C(F)F)c(-c3ccnn3C(C)C)cc2c1=O)S(C)(=O)=O [[7-Difluoromethyl-6-(2-isopropyl-2H-pyrazol-3-yl)-2,4-dioxo-1,4-dihydro-2H-quinazolin-3-yl]-methanesulfonyl-carbamic acid isobutyl ester] | – | responders at 50 mg/kg [3]: 0% |
| CCCC(=O)N(n1c(=O)[nH]c2cc(C(F)(F)F)c(-n3ccnc3)cc2c1=O)S(C)(=O)=O [Example 4.09, N-Butyryl-N-(6-imidazol-1-yl-2,4-dioxo-7-trifluoromethyl-1,4-dihydro-2H-quinazolin-3-yl)-methanesulfonamide] | 40 | – |
| CC(C)c1cc2[nH]c(=O)n(N(C(=O)COCc3ccccc3)S(C)(=O)=O)c(=O)c2cc1-c1ccnn1C [Example 3.29, N-(2-Benzyloxy-acetyl)-N-[7-isopropyl-6-(2-methyl-2H-pyrazol-3-yl)-2,4-dioxo-1,4-dihydro-2H-quinazolin-3-yl]-methanesulfonamide] | 100 | – |
| CCC(=O)N(n1c(=O)[nH]c2cc(C(F)(F)F)c(-n3ccnc3)cc2c1=O)S(C)(=O)=O [Example 4.04, N-(6-Imidazol-1-yl-2,4-dioxo-7-trifluoromethyl-1,4-dihydro-2H-quinazolin-3-yl)-N-propionyl-methanesulfonamide] | – | responders at 50 mg/kg [2]: 40% |
